Legend:
[1] = target: T1, PERK (Homo sapiens, UniProt Q9NZJ5); test: cell-free FRET-based biochemical assay, PERK; settings: role: inhibitor; ratio of IC50 values
T1 construct: purchased Carna
Method: The potency of HC-5404 against four ISR kinases was evaluated in cell-free FRET-based biochemical assays, following manufacturer's instructions (Carna).
Cell-free biochemical assays were used to evaluate the selectivity of HC-5404 for PERK, relative to the ISR kinases GCN2, HRI, and PKR. In these assays, recombinant target kinases were incubated with […] and an eIF2α-based fluorogenic substrate, and kinase activity was evaluated in presence of HC-5404 across a concentration series.

[2] = target: BLK (Homo sapiens, UniProt P51451); test: KINOMEScan biochemical panel assay, BLK; type: binding; settings: 1000 nM
Method: The selectivity of HC-5404 against the broader kinome was then evaluated using a KINOMEScan biochemical panel assay that measured binding against 468 unique kinases, including 403 wild-type human kinases and 59 mutant isoforms.

[3] = mouse plasma pharmacokinetics after single oral administration; type: in vivo
Method: Initial in vivo studies aimed at understanding the pharmacokinetic and pharmacodynamic (PK/PD) relationship and optimizing the dosing regimen were conducted. HC-5404 was quantified from mouse plasma following a single oral administration (PO) at doses ranging from 3 to 100 mg/kg. […] Mouse plasma protein binding (PPB %) was determined to be 95.6%, which enabled us to calculate the free drug plasma exposure across time (FIG. 18).

[4] = test system: pPERK in mouse pancreas; test: pPERK inhibition (PD) in mouse pancreas; type: in vivo
Method: The PK/PD relationship was evaluated in mouse pancreas, as the pancreas has elevated pPERK activity that makes it suitable for PD analysis. […] At these concentrations, pPERK inhibition was approximately 90% (FIG. 19).

[5] = test system: pPERK in 786-O tumors; test: pPERK in 786-O tumor xenografts; type: in vivo, mouse
[6] = test system: 786-O RCC xenograft; test: 786-O RCC xenograft tumor growth; type: in vivo, mouse
Method: Xenograft RCC models were generated as follows: Female NOD.SCID mice (6-8 weeks of age) were injected with A498 RCC cells (5×10^6 cells/mouse), female Balb/c Nude mice (6-8 weeks old) were implanted with 786-O RCC cells (5×10^6 cells/mouse) or Caki-1 RCC cells (6×10^6 cells/mouse), female Athymic Nude-Foxn1nu mice (7-8 weeks of age) were implanted with MFE280 endometrial cells (10×10^6 cells/mouse). Cells were implanted into the flank of animals.
Once tumor tumors reached volume of typically 150-250 mm^3, animals were randomized by tumor volume into the treatment groups of 8 or 10 animals per group. In the single animal trial with RCC PDX models, only one animal per group was enrolled.
(§1) Body weight and tumor volume were measured twice weekly. Tumor volume was calculated using the formula [tumor volume (mm^3)=π/6×length×width^2] and plotted as means+SEM. The percentage of tumor growth inhibition was calculated at the end of the study using the formula: […], if ΔT>0, ΔT, mean tumor volume of the drug-treated group on the observation day of the study—mean tumor volume of the drug-treated group on initial day of dosing; ΔC, mean tumor volume of the control group on the observation day of the study—mean tumor volume of the control group on initial day of dosing. Regression was calculated using the formula=100×ΔT/Tinitial, if ΔT<0. Animals with >50% regressions were partial responders. Animals with tumor volume of 0 (no measurable tumor) were considered as complete responders, and animals with <50% tumor regression and 30% growth over the baseline were considered as stable disease. Animals with tumors>30% increase over the baseline were considered progressive disease. The % change in body weight was calculated by the formula (body weight on observation day−body weight on initial day)/body weight on initial day×100%.

[7] = mouse body weight / tolerability; type: in vivo; settings: 786-O, HC-5404 3, 10, 30 mg/kg BID and/or cabozantinib 30 mg/kg QD (FIG. 53)
Method: as §1

[8] = test system: ASNS and PSAT1 in MFE280 tumors; test: ASNS and PSAT1 in MFE280 tumors; type: in vivo, mouse; settings: 7 days, HC-5404 30 mpk BID
[9] = test system: pro-angiogenic cytokines in mouse plasma; test: plasma pro-angiogenic cytokines, mice bearing 786-O tumors; type: in vivo
Method: Mouse plasma sampled following 7 days of treatment with HC-5404 (30 mpk, PO, BID) and cabozantinib (30 mpk, PO, QD). Multiple cytokines associated with angiogenesis were quantified by Illumina multiplex.
Plasma analysis from mice bearing 786-O tumors, treated with HC-5404 at 3, 10, or 30 mg/kg (PO; BID) as a single agent or in combination with cabozantinib (30 mg/kg; PO; QD). Multiple cytokines associated with angiogenesis were quantified by Illumina multiplex (FIG. 86, FIG. 87, FIG. 88, FIG. 89, FIG. 90).

T1 sequence (Q9NZJ5 30-1116): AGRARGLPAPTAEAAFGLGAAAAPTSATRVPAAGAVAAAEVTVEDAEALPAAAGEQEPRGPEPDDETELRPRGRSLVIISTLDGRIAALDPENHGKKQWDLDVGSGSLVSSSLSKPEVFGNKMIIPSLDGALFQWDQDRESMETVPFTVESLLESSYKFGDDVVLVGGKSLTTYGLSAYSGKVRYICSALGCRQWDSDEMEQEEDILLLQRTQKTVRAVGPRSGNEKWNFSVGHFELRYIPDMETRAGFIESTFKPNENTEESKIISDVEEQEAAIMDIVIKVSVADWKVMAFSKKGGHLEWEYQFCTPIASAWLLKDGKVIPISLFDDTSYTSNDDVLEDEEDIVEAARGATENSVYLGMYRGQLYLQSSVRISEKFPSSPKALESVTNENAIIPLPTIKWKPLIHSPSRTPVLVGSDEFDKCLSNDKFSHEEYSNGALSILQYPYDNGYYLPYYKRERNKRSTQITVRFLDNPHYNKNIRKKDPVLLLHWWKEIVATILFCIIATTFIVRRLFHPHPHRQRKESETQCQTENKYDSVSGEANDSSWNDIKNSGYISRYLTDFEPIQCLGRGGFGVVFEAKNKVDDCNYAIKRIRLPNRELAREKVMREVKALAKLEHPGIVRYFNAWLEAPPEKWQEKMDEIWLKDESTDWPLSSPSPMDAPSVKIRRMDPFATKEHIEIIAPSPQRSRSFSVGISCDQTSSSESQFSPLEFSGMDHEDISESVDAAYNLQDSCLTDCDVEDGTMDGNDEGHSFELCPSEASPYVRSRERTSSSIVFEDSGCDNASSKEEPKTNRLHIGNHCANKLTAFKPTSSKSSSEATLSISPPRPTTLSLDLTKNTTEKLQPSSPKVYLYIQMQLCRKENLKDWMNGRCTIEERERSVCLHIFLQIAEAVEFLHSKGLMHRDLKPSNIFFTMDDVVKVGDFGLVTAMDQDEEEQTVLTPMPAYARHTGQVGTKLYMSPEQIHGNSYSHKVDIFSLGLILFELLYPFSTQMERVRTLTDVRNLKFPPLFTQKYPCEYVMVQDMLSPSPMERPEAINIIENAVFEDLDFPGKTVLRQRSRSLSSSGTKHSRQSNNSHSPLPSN
Sequence of BLK (P51451 whole entry, canonical isoform): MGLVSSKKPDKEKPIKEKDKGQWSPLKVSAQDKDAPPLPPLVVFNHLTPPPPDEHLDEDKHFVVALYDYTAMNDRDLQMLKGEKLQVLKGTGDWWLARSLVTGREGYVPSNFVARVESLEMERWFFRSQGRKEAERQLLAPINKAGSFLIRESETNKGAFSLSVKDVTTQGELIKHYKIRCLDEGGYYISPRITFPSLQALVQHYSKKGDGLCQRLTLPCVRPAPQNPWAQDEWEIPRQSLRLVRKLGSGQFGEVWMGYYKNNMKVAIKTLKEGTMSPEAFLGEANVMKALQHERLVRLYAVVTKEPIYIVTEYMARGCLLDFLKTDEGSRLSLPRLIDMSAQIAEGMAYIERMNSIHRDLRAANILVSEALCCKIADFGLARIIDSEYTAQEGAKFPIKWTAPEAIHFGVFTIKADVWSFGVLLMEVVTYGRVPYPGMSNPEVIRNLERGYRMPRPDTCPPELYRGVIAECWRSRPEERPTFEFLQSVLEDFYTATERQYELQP

SMILES: Cc1cc(NC(=O)[C@H](O)c2cc(F)cc(F)c2)ccc1-c1cnc(N)c(C(=O)NC(C)C)c1 [HC-5404, (R)-2-amino-5-(4-(2-(3,5-difluorophenyl)-2-hydroxyacetamido)-2-methylphenyl)-N-isopropylnicotinamide]
- biochemical selectivity for PERK over GCN2, HRI and PKR [1]: > 2000 fold
- inhibition of BLK [2]: inhibited
- free drug (unbound) plasma exposure at Cmax / 1 h ([3]; PO, 30 mg/kg): 355 nM
- concentration at 1 h ([3]; plasma, PO, 30 mg/kg): 3670 ng/mL
- concentration at 12 h ([3]; plasma, single PO, 100 mg/kg, read-out: plasma exposure up to 12 h after dosing): > 3200 ng/mL
- Tmax ([3]; plasma, single PO, 3 to 100 mg/kg, read-out: time of Cmax): < 1 h
- unbound plasma concentration at Cmax ([3]; single PO, 100 mg/kg): 1605 nM
- unbound plasma exposure up to 12 h after dosing ([3]; single PO, 100 mg/kg): > 311 nM
- average half-life ([3]; single PO, 3 to 100 mg/kg): 2.22 h
- dose proportionality of exposure ([3]; single PO, up to 100 mg/kg): Dose-proportional increases in exposure
- time until basal pPERK levels restored in pancreas ([4]; 30 mg/kg PO, after dosing): ≤ 12 h
- pPERK activity remaining in pancreas ([4]; 100 mg/kg PO, first 12 h): < 20%
- inhibition at 30 mg/kg ([4]; Mus musculus, 30 mg/kg PO, 1 h): ~90%
- inhibition of p-PERK in pancreas tissue ([4]; PO): time-dependent and dose-dependent inhibition of p-PERK
- pPERK expression in 786-O ([5]; 30 mg/kg PO BID, seven days (FIG. 30)): strongly inhibited pPERK expression
- time of return of pPERK to baseline in 786-O tumors ([5]; 30 mg/kg, post dose): ≤ 8 h
- pPERK levels in 786-O ([5]; DC-101 study, 4 days of treatment (FIG. 37)): inhibited the pPERK signal
- inhibition at 30 mg/kg ([5]; Mus musculus, 786-0, 30 mg/kg, 1 h post dose): ~90%
- VEGFR-TKI-induced pPERK accumulation in 786-O tumors ([5]; PD arm, 7 days, HC-5404 in combination with VEGFR-TKIs): inhibited by the addition of HC-5404
- tumor growth inhibition ([6]; 30 mg/kg PO BID, 28 days (FIG. 22)): 48%
- difference between BID and QD dosing ([6]; 3, 10, 30 mg/kg BID vs 6, 20, 60 mg/kg QD, PO): not statistically significant
- TGI ([6]; 10 and 30 mg/kg PO BID tested, 28 days (FIG. 36)): approximately 52%
- TGI % ([6]; HC-5404 30 mg/kg PO BID, cabozantinib combination study (FIG. 52)): ~ 61%
- dose dependence of antitumor efficacy ([6]; HC-5404 3, 10 and 30 mg/kg PO BID): trend for dose-dependent antitumor efficacy
- effect on tumor volume ([6]; single agent, efficacy arms (FIG. 28)): modest effects on tumor volume
- mouse body weight [7]: did not affect mouse body weight
- ASNS ([8]; lenvatinib 10 mpk QD (FIG. 79)): induces ASNS
- PSAT1 ([8]; lenvatinib 10 mpk QD (FIG. 80)): induces
- VEGF-A in plasma ([9]; 3, 10, 30 mg/kg PO BID (FIG. 86)): decreased in plasma by HC-5404 as a single agent in a dose-dependent fashion
- LYVE-1 in plasma ([9]; 3, 10, 30 mg/kg PO BID, alone or with cabozantinib (FIG. 89)): decreased by HC-5404 in a dose-dependent manner
- Syndecan in plasma ([9]; 3, 10, 30 mg/kg PO BID, alone or with cabozantinib (FIG. 90)): decreased by HC-5404 as monotherapy
